Tests used:
[1] = Plasma stability assay, rat plasma; type: in vitro ADME; conditions: 37° C., 10 μM
[2] = Plasma stability assay, dog plasma; type: in vitro ADME; conditions: 37° C., 2 μM; for % remaining at time point in minutes, 15 min: 15 min (as headed); for % remaining at time point in minutes, 120 min: 120 min (as headed); for % remaining at time point in minutes, 480 min: 480 min (as headed); for % remaining at time point in minutes, 1440 min: 1440 min (as headed)
Description: (§1) Plasma stability determination of the test compounds in rat, dog, cynomolgus monkey and human plasma is performed using HPLC-MS. For rat, incubations are carried out in 96-well polypropylene plates in 5 aliquots of 70 μL each (one for each time point). […] Five time points are analyzed (0, 15, 120, 480 and 1440 min). […] All incubations are performed in duplicates. The samples are analyzed by HPLC-MS. The percentage of parent compound remaining after incubation in plasma is determined.

[3] = Plasma stability assay, monkey plasma; type: in vitro ADME, cynomolgus monkey; conditions: 37° C., 2 μM; for % remaining at time point in minutes, 15 min: 15 min (as headed); for % remaining at time point in minutes, 120 min: 120 min (as headed); for % remaining at time point in minutes, 480 min: 480 min (as headed); for % remaining at time point in minutes, 1440 min: 1440 min (as headed)
Description: as §1

[4] = Plasma stability assay, human plasma; type: in vitro ADME; conditions: 37° C., 2 μM; for % remaining at time point in minutes, 15 min: 15 min (as headed); for % remaining at time point in minutes, 120 min: 120 min (as headed); for % remaining at time point in minutes, 480 min: 480 min (as headed); for % remaining at time point in minutes, 1440 min: 1440 min (as headed)
Description: as §1

[5] = Liver S9 fraction stability, dog; type: in vitro ADME; conditions: 1.0 mg/ml S9 protein, 2 μM, 37° C.
Description: (§2) Liver S9 fraction stability determination of the test compounds in dog, cynomolgus monkey and human is performed using HPLC-MS. Test compound (2 μM, 0.1% DMSO, 1% Methanol final concentration) was assessed for stability in a 50 μl phosphate buffer containing 1.0 mg/ml S9 protein from each of the three species and 5 mM D-saccharic acid-1, 4-lactone. Samples were incubated at 37° C. for 60 minutes and the % compound remaining was assessed.

[6] = Liver S9 fraction stability, monkey; type: in vitro ADME, cynomolgus monkey; conditions: 1.0 mg/ml S9 protein, 2 μM, 37° C.
Description: as §2

[7] = Liver S9 fraction stability, human; type: in vitro ADME; conditions: 1.0 mg/ml S9 protein, 2 μM, 37° C.
Description: as §2

[8] = target: T1, KOR (Homo sapiens, UniProt P41145); experiment: Opioid receptor binding assay, KOR ([3H]Diprenorphine); conditions: KOR, MaxDose 10000 nM
T1 construct: expressed in transfected cells; membranes prepared from them
T1 sequence (P41145 whole entry): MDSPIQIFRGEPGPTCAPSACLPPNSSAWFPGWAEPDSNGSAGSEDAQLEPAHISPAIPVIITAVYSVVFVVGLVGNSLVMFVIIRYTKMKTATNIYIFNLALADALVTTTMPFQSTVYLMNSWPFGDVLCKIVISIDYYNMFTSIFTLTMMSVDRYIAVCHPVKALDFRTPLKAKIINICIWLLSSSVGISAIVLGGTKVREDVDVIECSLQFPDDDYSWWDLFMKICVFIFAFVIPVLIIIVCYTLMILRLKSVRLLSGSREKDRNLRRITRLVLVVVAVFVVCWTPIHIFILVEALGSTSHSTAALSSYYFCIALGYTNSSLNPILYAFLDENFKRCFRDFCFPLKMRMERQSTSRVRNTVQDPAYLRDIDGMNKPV

[9] = target: T2, MOR (Homo sapiens, UniProt P35372); experiment: Opioid receptor binding assay, MOR ([3H]DAMGO); conditions: MOR, MaxDose 10000 nM
T2 construct: expressed in transfected cells; membranes prepared from them
T2 sequence (P35372 whole entry): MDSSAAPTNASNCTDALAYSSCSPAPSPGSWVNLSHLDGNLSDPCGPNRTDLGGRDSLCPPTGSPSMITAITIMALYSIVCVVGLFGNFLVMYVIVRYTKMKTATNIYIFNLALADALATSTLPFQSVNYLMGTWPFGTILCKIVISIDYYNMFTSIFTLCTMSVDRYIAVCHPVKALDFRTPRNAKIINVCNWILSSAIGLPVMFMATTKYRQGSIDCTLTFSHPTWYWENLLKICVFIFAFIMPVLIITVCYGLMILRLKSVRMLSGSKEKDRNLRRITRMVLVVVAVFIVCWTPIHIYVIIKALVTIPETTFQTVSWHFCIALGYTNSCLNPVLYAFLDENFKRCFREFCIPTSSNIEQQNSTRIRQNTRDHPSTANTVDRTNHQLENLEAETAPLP

[10] = Solubility determination in oil (cottonseed oil, sesame oil); conditions: heating temp. 60 °C
Description: A known amount of test substance (˜40 mg) was weighed into the vial, 100 μL of oil was added and heated to 60° C. and then system was slurried to reach equilibrium. […] Extra oil was added into the vial once compound precipitated out and then the system was re-equilibrated at 1000 rpm at room temperature (25° C.). Final concentration was determined by HPLC method as described below in Table 6a and 6b.

[11] = Rat pharmacokinetic studies, intramuscular; type: in vivo, male Sprague Dawley Rats; conditions: rat IM
Description: The purpose of this study is to determine the pharmacokinetics of test compounds in plasma, following intramuscular administration to male Sprague Dawley Rats (n=3, unless otherwise specified).
The dose formulation of 400 mg base equivalents/ml in sesame oil+1% benzyl alcohol (unless otherwise specified) was administered by intramuscular injection. The dose volume was determined by the animals' body weight determined on the morning of dosing day.
Each collected blood sample was centrifuged for 4 minutes at 4° C. and 10000 rpm for plasma collection. Plasma was collected and transferred into a pre-labeled PP tube in dry ice at each time point and precipitated immediately using ACN at a ratio of 1:4 (plasma:ACN). Centrifuged again (10 minutes, 12000 rpm) and obtain the supernatant.
After terminal collection, all supernatant was stored at approximately −80° C. until bioanalysis.
LC-MS/MS methods for the quantitative determination of test compound in biological matrix were developed. […] The sample analysis was performed concurrently with a set of calibration standards and two sets of QC samples using the LC-MS/MS method.
Plasma concentration versus time data was analyzed by non-compartmental approaches using the Phoenix WinNonlin 6.3 software program. Cmax, Tmax, T1/2, AUC(0-t), AUC(0-inf), MRT(0-t), MRT(0-inf) and graphs of plasma concentration versus time profile were prepared.

[12] = Dog pharmacokinetic studies, deep intramuscular; type: in vivo, Beagle dogs; conditions: dog IM, Sesame oil + 1% Benzyl Alcohol
[13] = Equilibrium solubility in water; conditions: obs. temp. 40 °C
[14] = target: T3, DOR (Homo sapiens, UniProt P41143); experiment: Opioid receptor binding assay, DOR ([3H]-DADLE); conditions: DOR, MaxDose 10000 nM
T3 construct: expressed in transfected cells; membranes prepared from them
T3 sequence (P41143 whole entry): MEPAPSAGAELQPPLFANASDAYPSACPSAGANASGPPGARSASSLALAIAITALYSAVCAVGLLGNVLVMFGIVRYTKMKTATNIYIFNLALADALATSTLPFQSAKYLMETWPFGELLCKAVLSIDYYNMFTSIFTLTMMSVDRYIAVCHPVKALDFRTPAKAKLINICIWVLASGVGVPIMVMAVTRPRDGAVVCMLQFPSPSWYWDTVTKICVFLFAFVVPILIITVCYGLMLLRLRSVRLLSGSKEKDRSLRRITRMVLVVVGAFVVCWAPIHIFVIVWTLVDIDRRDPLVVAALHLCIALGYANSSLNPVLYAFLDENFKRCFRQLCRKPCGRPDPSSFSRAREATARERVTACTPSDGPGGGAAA

[15] = 80 mg/kg, Sesame oil + 1% Benzyl Alcohol
[16] = 123 mg/kg, Sesame oil + 1% Benzyl Alcohol
[17] = 165 mg/kg, Sesame oil + 1% Benzyl Alcohol
[18] = 80 mg/kg, Cottonseed + 1% Benzyl Alcohol
[19] = 123 mg/kg, Cottonseed oil + 1% Benzyl Alcohol

Compound | % remaining at time point in minutes, 0 min [1] [%] | % remaining at time point in minutes, 15 min [1] [%] | % remaining at time point in minutes, 120 min [1] [%] | % remaining at time point in minutes, 480 min [1] [%] | % remaining at time point in minutes, 1440 min [1] [%] | % remaining at time point in minutes, 0 min [2] [%] | % remaining at time point in minutes, 15 min [2] [%] | % remaining at time point in minutes, 120 min [2] [%] | % remaining at time point in minutes, 480 min [2] [%] | % remaining at time point in minutes, 1440 min [2] [%] | % remaining at time point in minutes, 0 min [3] [%] | % remaining at time point in minutes, 15 min [3] [%] | % remaining at time point in minutes, 120 min [3] [%] | % remaining at time point in minutes, 480 min [3] [%] | % remaining at time point in minutes, 1440 min [3] [%] | % remaining at time point in minutes, 0 min [4] [%] | % remaining at time point in minutes, 15 min [4] [%] | % remaining at time point in minutes, 120 min [4] [%] | % remaining at time point in minutes, 480 min [4] [%] | % remaining at time point in minutes, 1440 min [4] [%] | other results
C=C1CC[C@@]2(O)C3Cc4ccc(OC(=O)OCCCCCCCCCCCC)c5c4[C@@]2(CCN3CC2CC2)[C@H]1O5 [Compound 6, (4aS,7aS,12bS)-3-(cyclopropylmethyl)-4a-hydroxy-7-methylene-2,3,4,4a,5,6,7,7a-octahydro-1H-4,12-methanobenzofuro[3,2-e]isoquinolin-9-yl dodecyl carbonate] | 100 | 31.3 | 7.6 | 4 | 1.6 | 100 | 89.1 | 96.9 | 107.2 | 101.2 | 100 | 88.7 | 74.3 | 68.4 | 70.1 | 100 | 97.6 | 102 | 109.8 | 115.1 | Liver S9 Fraction Stability % remaining at 60 minutes, Dog [5]: 17.1%; Liver S9 Fraction Stability % remaining at 60 minutes, Monkey [6]: 0%; Liver S9 Fraction Stability % remaining at 60 minutes, Human [7]: 5.3%; %Inh@MaxDose [8]: 99.6%; %Inh@MaxDose [9]: 102.5%; Approximate Solubility (mg/mL) in Excipient: Cottonseed oil ([10]; obs. temp. 25 °C): >397 mg/mL; Approximate Solubility (mg/mL) in Excipient: Sesame oil ([10]; obs. temp. 25 °C): >386 mg/mL; AUC0-inf (ng · h/mL) prodrug [11, 15]: 78.9 ng·h/mL; Half-life t1/2 (hour) prodrug [11, 15]: 340 h; AUC0-inf (ng · h/mL) prodrug [11, 16]: 620 ng·h/mL; Half-life t1/2 (hour) prodrug [11, 16]: 213 h; AUC0-inf (ng · h/mL) prodrug [11, 17]: 637 ng·h/mL; Half-life t1/2 (hour) prodrug [11, 17]: 204 h; AUC0-inf (ng · h/mL) prodrug ([12]; 30 mg/kg): 398 ng·h/mL; Half-life t1/2 (hour) prodrug ([12]; 30 mg/kg): 95 h; AUC0-inf (ng · h/mL) prodrug ([12]; 96 mg/kg): 1290 ng·h/mL; Half-life t1/2 (hour) prodrug ([12]; 96 mg/kg): 88 h
C=C1CC[C@@]2(O)C3Cc4ccc(OC(=O)CCCCCCCCCCCCCCCCC)c5c4[C@@]2(CCN3CC2CC2)[C@H]1O5 [Compound 12, (4aS,7aS,12bS)-3-(cyclopropylmethyl)-4a-hydroxy-7-methylene-2,3,4,4a,5,6,7,7a-octahydro-1H-4,12-methanobenzofuro[3,2-e]isoquinolin-9-yl stearate] | – | – | – | – | – | – | – | – | – | – | – | – | – | – | – | – | – | – | – | – | Approximate Solubility (mg/mL) in Excipient: Sesame oil ([10]; obs. temp. 25 °C): <50 mg/mL; Approximate Solubility (mg/mL) in Excipient: Sesame oil ([10]; obs. temp. 40 °C): >411.1 mg/mL; Equilibrium solubility (mg/mL) Water ([13]; heating temp. 40 °C): 0.026 mg/mL
O=C(CCC1CCCC1)Oc1ccc2c3c1O[C@H]1C(=O)CC[C@@]4(O)C(C2)N(CC2CC2)CC[C@]314 [Compound 43, (4aS,7aR,12bS)-3-(cyclopropylmethyl)-4a-hydroxy-7-oxo-2,3,4,4a,5,6,7,7a-octahydro-1H-4,12-methanobenzofuro[3,2-e]isoquinolin-9-yl 3-cyclopentylpropanoate] | – | – | – | – | – | – | – | – | – | – | – | – | – | – | – | – | – | – | – | – | Equilibrium solubility (mg/mL) Water ([13]; heating temp. 40 °C): 0.048 mg/mL
C=C1CC[C@@]2(O)[C@H]3Cc4ccc(O)c5c4[C@@]2(CCN3CC2CC2)[C@H]1O5 [61 (Nalmefene)] | – | – | – | – | – | – | – | – | – | – | – | – | – | – | – | – | – | – | – | – | Approximate Solubility (mg/mL) in Excipient: Cottonseed oil ([10]; obs. temp. 40 °C): <25.0 mg/mL; Approximate Solubility (mg/mL) in Excipient: Ethanol ([10]; Ethanol, obs. temp. 40 °C): 102 to 137 mg/mL; Approximate Solubility (mg/mL) in Excipient: Sesame oil ([10]; obs. temp. 40 °C): <25.5 mg/mL; Equilibrium solubility (mg/mL) Water ([13]; heating temp. 60 °C): 0.025 mg/mL
C=C1CC[C@@]2(O)C3Cc4ccc(OCOC(=O)OCCCCCCCCCCCC)c5c4[C@@]2(CCN3CC2CC2)[C@H]1O5 [Compound 24, (((4aS,7aS,12bS)-3-(cyclopropylmethyl)-4a-hydroxy-7-methylene-2,3,4,4a,5,6,7,7a-octahydro-1H-4,12-methanobenzofuro[3,2-e]isoquinolin-9-yl)oxy)methyl dodecyl carbonate] | 100 | 32 | 11.8 | 8.2 | 3 | 100 | 94.7 | 104.5 | 115.7 | 116.2 | 100 | 90.7 | 93.5 | 96.2 | 97.8 | 100 | 94 | 102.3 | 105.3 | 112.5 | Liver S9 Fraction Stability % remaining at 60 minutes, Dog [5]: 3.6%; Liver S9 Fraction Stability % remaining at 60 minutes, Monkey [6]: 3%; Liver S9 Fraction Stability % remaining at 60 minutes, Human [7]: 3.5%; %Inh@MaxDose [14]: 48%; %Inh@MaxDose [8]: 82.9%; %Inh@MaxDose [9]: 88.7%; AUC0-inf (ng · h/mL) prodrug [11, 18]: 147 ng·h/mL; Half-life t1/2 (hour) prodrug [11, 18]: 398 h; AUC0-inf (ng · h/mL) prodrug [11, 19]: 547 ng·h/mL; Half-life t1/2 (hour) prodrug [11, 19]: 717 h; AUC0-inf (ng · h/mL) prodrug ([11]; 165 mg/kg, Cottonseed oil + 1% Benzyl Alcohol): 453 ng·h/mL
